The record followed here is patent US8188308B2 (Kyowa Hakko Bio Co., Ltd., priority 2006, dated 2012).

For data set [1] the following is noted: glutathione crystals. On the procedure:
The crystals were observed and photographed using a VH-8000 digital microscope (Keyence Corporation). The width of approximately 300 crystals was measured and calculations performed.

For data set [2] the following is noted: glutathione crystals; volume median diameter. The procedure: (2) Average Particle Diameter
This is synonymous with volume median diameter, and it was measured using a laser diffraction and scattering particle diameter analyzer, the LMS-24 SK Laser Micron Sizer (Seishin Enterprise Co. Ltd.) and expressed as a cumulative 50% volume particle diameter.

The conditions of data set [3]: 12 g crystals in 200 ml ionized water, 37° C., 120 rpm, time to complete dissolution. On the procedure:
12 g of each of the crystals was put in to 200 ml of the ionized water maintained at a temperature of 37° C., and the time from injection to complete dissolution of the crystals when agitated at 120 rpm was measured.

Where “and” joins values, the source holds several entries; their conditions need not be identical. Equal entries are not always repeated.

`N[C@@H](CCC(=O)N[C@@H](CS)C(=O)NCC(=O)O)C(=O)O` [Commercial product A] gave an Average width in data set [1] of 3 μm. In data set [2], this molecule gave an Average particle diameter of 9 μm. The Dissolution time in data set [3] was 124 s.

`N[C@@H](CCC(=O)N[C@@H](CS)C(=O)NCC(=O)O)C(=O)O` [Example 1, gamma-L-glutamyl-L-cysteinyl glycine] gave an Average width in data set [1] of 25 μm. In data set [2], this molecule had an Average particle diameter of 52 μm.

Turning to `N[C@@H](CCC(=O)N[C@@H](CS)C(=O)NCC(=O)O)C(=O)O` [Example 2, gamma-L-glutamyl-L-cysteinyl glycine], the Average width in data set [1] is 14 μm and 7 μm.

As for `N[C@@H](CCC(=O)N[C@@H](CS)C(=O)NCC(=O)O)C(=O)O` [commercial product B], in data set [1], the Average width was 3 μm.

Molecule `N[C@@H](CCC(=O)N[C@@H](CS)C(=O)NCC(=O)O)C(=O)O` [commercial product C] returned an Average width in data set [1] of 3 μm.
